The target in one assay is human AKT1 (Homo sapiens (Human), UniProt P31749). Briefly: AKT1 kinase activity inhibition (TR-FRET, biotinylated Crosstide substrate). The format is biochemical. The conditions noted are these: preincubation 120 min at 25° C.; ATP 150 μM; Crosstide 500 nM. The procedure:
(§1) Preparation of AKT1 and AKT2 and measurement of in vitro inhibitory activity of the above-mentioned compounds against AKT1 and AKT2 kinase activity were carried out with reference to the method disclosed in Biochem. J. Vol. 385, pp 399-408 (2005). In the preparation of AKT1 and AKT2, human AKT1 and AKT2 to which a middle T antigen tag was added were expressed in Sf 9 insect cells, and then AKT1 and AKT2 were prepared following affinity purification and activation by PDK1. The prepared AKT1 and AKT2 were stored at −80° C. until the time of measurement of inhibitory activity of the compounds. In the measurement of inhibitory activity of the compounds, AKT1 or AKT2 and each compound of the present invention were preincubated at 25° C. for 120 minutes in a buffer solution for reaction (15 mM Tris-HCl pH 7.5, 0.01% Tween-20, 2 mM DTT). As a substrate, biotinylated Crosstide (bioton-KGSGSGRPRTSSFAEG), MgCl2, and ATP were added to final concentrations of 500 nM, 10 mM, and 150 μM, respectively, and reactions were carried out at 25° C. for 60 minutes. The reactions were stopped by adding EDTA to a final concentration of 80 mM. Then, a detection liquid in which an Eu-labeled anti-phosphorylation Crosstide antibody (PerkinElmer) and SureLight APC-SA (PerkinElmer) were contained at a final concentration of 0.5 nM and […], respectively, was added, and reactions were carried out at room temperature for 2 hours. Finally, the amount of fluorescence at the time of irradiation of excitation light having a wavelength of 337 nm was measured at dual wavelengths of 620 nm and 665 nm by PHERAstar FS (BMG LABTECH). The amount of phosphorylation was determined from the ratio of the fluorescence amounts at the dual wavelengths. The compound concentration at which phosphorylation can be inhibited by 50% was defined as […] (nM), and the results are shown in Table 4 below.

For another assay, the target named is human AKT2 (Homo sapiens (Human), UniProt P31751). Briefly: AKT2 kinase activity inhibition (TR-FRET, biotinylated Crosstide substrate). The format is biochemical. The conditions noted are these: preincubation 120 min at 25° C.; ATP 150 μM; Crosstide 500 nM. How it is done:
as §1

human AKT2, sequence (P31751 whole entry): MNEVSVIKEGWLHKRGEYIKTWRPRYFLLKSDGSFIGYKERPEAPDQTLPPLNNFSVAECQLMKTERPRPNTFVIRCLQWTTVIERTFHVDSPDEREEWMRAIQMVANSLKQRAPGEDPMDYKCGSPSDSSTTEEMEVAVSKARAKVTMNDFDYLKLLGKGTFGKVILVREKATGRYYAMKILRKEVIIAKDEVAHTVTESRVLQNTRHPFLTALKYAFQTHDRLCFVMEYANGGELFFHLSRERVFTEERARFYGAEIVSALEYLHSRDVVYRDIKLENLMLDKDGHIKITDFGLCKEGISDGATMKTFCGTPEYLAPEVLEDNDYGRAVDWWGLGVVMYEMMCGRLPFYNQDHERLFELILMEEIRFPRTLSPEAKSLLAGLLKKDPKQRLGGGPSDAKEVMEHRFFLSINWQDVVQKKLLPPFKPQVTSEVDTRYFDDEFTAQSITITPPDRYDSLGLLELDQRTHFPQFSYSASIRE
human AKT1, sequence (P31749 whole entry): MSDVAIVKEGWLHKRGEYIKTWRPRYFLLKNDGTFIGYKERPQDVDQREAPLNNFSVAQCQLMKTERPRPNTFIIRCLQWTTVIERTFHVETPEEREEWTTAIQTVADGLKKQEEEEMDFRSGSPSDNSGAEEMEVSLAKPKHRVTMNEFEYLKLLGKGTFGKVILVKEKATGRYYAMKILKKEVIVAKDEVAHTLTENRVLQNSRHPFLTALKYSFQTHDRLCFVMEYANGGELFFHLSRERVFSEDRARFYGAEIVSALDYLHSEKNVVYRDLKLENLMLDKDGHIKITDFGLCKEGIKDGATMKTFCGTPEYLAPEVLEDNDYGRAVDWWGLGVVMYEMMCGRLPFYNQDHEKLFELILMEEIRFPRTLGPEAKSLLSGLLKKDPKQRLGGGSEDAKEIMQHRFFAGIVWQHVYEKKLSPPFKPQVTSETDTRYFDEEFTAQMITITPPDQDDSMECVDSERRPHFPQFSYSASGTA

With `CC1(O)CC(N)(c2ccc(-c3nc4n(c3-c3ccccc3)COc3ccc(C(=O)NCCO)cc3-4)cc2)C1` (stereo not drawn) [Example 60, 2-(4-(trans-1-amino-3-hydroxy-3-methylcyclobutyl)phenyl)-N-(2-hydroxyethyl)-3-phenyl-5H-benzo[e]imidazo[1,2-c][1,3]oxazine-9-carboxamide], the IC50 at human AKT1 was 2.4 nM; against human AKT2 it was 0.57 nM.
The corresponding values for `CC1(O)CC(N)(c2ccc(-c3nc4n(c3-c3ccccc3)COc3cc(C(N)=O)ccc3-4)cc2)C1` (stereo not drawn) [Example 62, 2-(4-(trans-1-amino-3-hydroxy-3-methylcyclobutyl)phenyl)-3-phenyl-5H-benzo[e]imidazo[1,2-c][1,3]oxazine-8-carboxamide] are 1.3 nM and 0.4 nM.
For `NC1(c2ccc(-c3nc4n(c3-c3ccccc3)COc3ncccc3-4)cc2)CCC1` [Example 40, 1-(4-(3-phenyl-5H-imidazo[1,2-c]pyrido[3,2-e][1,3]oxazin-2-yl)phenyl)cyclobutanamine], the IC50 on human AKT1 came to 3.9 nM; against human AKT2, 1.6 nM.
Regarding `C[C@]1(O)C[C@@](N)(c2ccc(-c3nc4n(c3-c3ccccc3)COc3cc(F)ccc3-4)cc2)C1` [Example 9, trans-3-amino-3-(4-(8-fluoro-3-phenyl-5H-benzo[e]imidazo[1,2-c][1,3]oxazin-2-yl)phenyl)-1-methylcyclobutanol], the 50% inhibitory concentration (IC50) on human AKT1 was determined as 8.5 nM; against human AKT2, 2 nM.
Regarding `CC1(O)CC(N)(c2ccc(-c3nc4n(c3-c3ccccc3)COc3ccc(F)cc3-4)cc2)C1` (stereo not drawn) [Example 8, trans-3-amino-3-(4-(9-fluoro-3-phenyl-5H-benzo[e]imidazo[1,2-c][1,3]oxazin-2-yl)phenyl)-1-methylcyclobutanol], the 50% inhibitory concentration (IC50) was 6.4 nM against human AKT1 and 1 nM against human AKT2.
Take `CCONC(=O)c1ccc2c(c1)-c1nc(-c3ccc([C@]4(N)C[C@](C)(O)C4)cc3)c(-c3ccccc3)n1CO2` [Example 61, 2-(4-(trans-1-amino-3-hydroxy-3-methylcyclobutyl)phenyl)-N-ethoxy-3-phenyl-5H-benzo[e]imidazo[1,2-c][1,3]oxazine-9-carboxamide]: the IC50 at human AKT1 was determined as 1.8 nM; against human AKT2, 0.4 nM.
On to `CN(C)C(=O)c1ccc2c(c1)OCn1c-2nc(-c2ccc(C3(N)CC(C)(O)C3)cc2)c1-c1ccccc1` (stereo not drawn) [Example 57, 2-(4-(trans-1-amino-3-hydroxy-3-methylcyclobutyl)phenyl)-N,N-dimethyl-3-phenyl-5H-benzo[e]imidazo[1,2-c][1,3]oxazine-8-carboxamide], for which the 50% inhibitory concentration (IC50) at human AKT1 is 15 nM; against human AKT2, 3.5 nM.
As to `CC1(O)CC(N)(c2ccc(-c3nc4n(c3-c3ccsc3)COc3cccc(F)c3-4)cc2)C1` (stereo not drawn) [Example 6, trans-3-amino-3-(4-(10-fluoro-3-(thiophen-3-yl)-5H-benzo[e]imidazo[1,2-c][1,3]oxazin-2-yl)phenyl)-1-methylcyclobutanol], the values for the 50% inhibitory concentration (IC50) at human AKT1 and at human AKT2 were 9.8 nM and 0.91 nM, respectively.
Take `CCNC(=O)c1ccc2c(c1)-c1nc(-c3ccc(C4(N)CC(C)(O)C4)cc3)c(-c3ccccc3)n1CO2` (stereo not drawn) [Example 55, 2-(4-(trans-1-amino-3-hydroxy-3-methylcyclobutyl)phenyl)-N-ethyl-3-phenyl-5H-benzo[e]imidazo[1,2-c][1,3]oxazine-9-carboxamide]: the half-inhibitory concentration (IC50) worked out at 1.8 nM against human AKT1 and 0.31 nM against human AKT2.
Take `CNC(=O)c1ccc2c(c1)-c1nc(-c3ccc([C@]4(N)C[C@](C)(O)C4)cc3)c(-c3ccccc3)n1CO2` [Example 52, 2-(4-(trans-1-amino-3-hydroxy-3-methylcyclobutyl)phenyl)-N-methyl-3-phenyl-5H-benzo[e]imidazo[1,2-c][1,3]oxazine-9-carboxamide]: the values for the concentration for half-maximal inhibition (IC50) at human AKT1 and against human AKT2 were 1.5 nM and 0.28 nM, respectively.
For `CC1(O)CC(N)(c2ccc(-c3nc4n(c3-c3ccccc3)COc3cc(CO)ccc3-4)cc2)C1` (stereo not drawn) [Example 45, trans-3-amino-3-(4-(8-(hydroxymethyl)-3-phenyl-5H-benzo[e]imidazo[1,2-c][1,3]oxazin-2-yl)phenyl)-1-methylcyclobutanol], in that order: 8.6 nM and 2.7 nM.
Take “trans-3-amino-1-methyl-3-(4-(3-phenyl-5H-imidazo[1,2-c]pyrazino[2,3-e][1,3]oxazin-2-yl)phenyl)cyclobutanol [Example 42]”: the IC50 against human AKT1 came to 6.4 nM; against human AKT2, 4 nM.
For `CN(C)C(=O)c1ccc2c(c1)-c1nc(-c3ccc(C4(N)CC(C)(O)C4)cc3)c(-c3ccccc3)n1CO2` (stereo not drawn) [Example 54, 2-(4-(trans-1-amino-3-hydroxy-3-methylcyclobutyl)phenyl)-N,N-dimethyl-3-phenyl-5H-benzo[e]imidazo[1,2-c][1,3]oxazine-9-carboxamide], in that order: 4.4 nM and 1.3 nM.
For `COc1cc(OC)c2c(c1)OCn1c-2nc(-c2ccc(C3(N)CC(O)(C4CC4)C3)cc2)c1-c1ccccc1` (stereo not drawn) [Example 25, trans-3-amino-1-cyclopropyl-3-(4-(8,10-dimethoxy-3-phenyl-5H-benzo[e]imidazo[1,2-c][1,3]oxazin-2-yl)phenyl)cyclobutanol], in that order: 12 nM and 0.27 nM.
Regarding `NC1(c2ccc(-c3nc4n(c3-c3ccccc3)COc3ccncc3-4)cc2)CCC1` [Example 33, 1-(4-(3-phenyl-5H-imidazo[1,2-c]pyrido[3,4-e][1,3]oxazin-2-yl)phenyl)cyclobutanamine], the values for the 50% inhibitory concentration (IC50) at human AKT1 and against human AKT2 were 14 nM and 1.7 nM, respectively.
In the case of `CC[C@]1(O)C[C@@](N)(c2ccc(-c3nc4n(c3-c3ccccc3)COc3ccncc3-4)cc2)C1` [Example 34, trans-3-amino-1-ethyl-3-(4-(3-phenyl-5H-imidazo[1,2-c]pyrido[3,4-e][1,3]oxazin-2-yl)phenyl)cyclobutanol], the IC50 against human AKT1 was 12 nM; against human AKT2, 2.1 nM.
For the compound `Cc1ccc2c(n1)-c1nc(-c3ccc(C4(N)CC(C)(O)C4)cc3)c(-c3ccccc3)n1CO2` (stereo not drawn) [Example 50, trans-3-amino-1-methyl-3-(4-(9-methyl-3-phenyl-5H-imidazo[1,2-c]pyrido[2,3-e][1,3]oxazin-2-yl)phenyl)cyclobutanol], the 50% inhibitory concentration (IC50) against human AKT1 is 11 nM; on human AKT2 it was 0.85 nM.
On to `NC1(c2ccc(-c3nc4n(c3-c3ccccc3)COc3cnccc3-4)cc2)CCC1` [Example 37, 1-(4-(3-phenyl-5H-imidazo[1,2-c]pyrido[4,3-e][1,3]oxazin-2-yl)phenyl)cyclobutanamine], for which the figures for the IC50 at human AKT1 and on human AKT2 were 5.5 nM and 1.1 nM, respectively.
As to `NC1(c2ccc(-c3nc4n(c3-c3ccccc3)COc3cccc(F)c3-4)cc2)CCC1` [Example 3, 1-(4-(10-fluoro-3-phenyl-5H-benzo[e]imidazo[1,2-c][1, 3]oxazin-2-yl)phenyl)cyclobutanamine], the IC50 amounted to 16 nM against human AKT1 and 1.2 nM against human AKT2.
Turning to `NC1(c2ccc(-c3nc4n(c3-c3ccccc3)COc3cccnc3-4)cc2)CCC1` [Example 29, 1-(4-(3-phenyl-5H-imidazo[1,2-c]pyrido[2,3-e][1,3]oxazin-2-yl)phenyl)cyclobutanamine], the IC50 against human AKT1 is 35 nM; against human AKT2 it was 4 nM.

Source of the values: patent US8772283B2, “Imidazo-oxazine compound or salt thereof” (Taiho Pharmaceutical Co., Ltd., priority 2011, dated 2014).
